In patent US6337074B1, “Anti-herpesviral agent” (priority 1996, dated 2002):
Where two headings read alike, the source gives them in different places. No end group written: not given here.

What was measured:
UL54/UL102 interaction = biological target: T1, UL54/UL102 interaction (Human cytomegalovirus, UniProt P08546); experiment: UL54/UL102 interaction ELISA, inhibition by UL102 peptides; assay type: binding, HCMV
T1 construct: made in house; host or cells: Spodoptera frugiperda (Sf) cells infected with recombinant baculoviruses AcUL54 and AcUL102
T1 sequence (P08546 whole entry): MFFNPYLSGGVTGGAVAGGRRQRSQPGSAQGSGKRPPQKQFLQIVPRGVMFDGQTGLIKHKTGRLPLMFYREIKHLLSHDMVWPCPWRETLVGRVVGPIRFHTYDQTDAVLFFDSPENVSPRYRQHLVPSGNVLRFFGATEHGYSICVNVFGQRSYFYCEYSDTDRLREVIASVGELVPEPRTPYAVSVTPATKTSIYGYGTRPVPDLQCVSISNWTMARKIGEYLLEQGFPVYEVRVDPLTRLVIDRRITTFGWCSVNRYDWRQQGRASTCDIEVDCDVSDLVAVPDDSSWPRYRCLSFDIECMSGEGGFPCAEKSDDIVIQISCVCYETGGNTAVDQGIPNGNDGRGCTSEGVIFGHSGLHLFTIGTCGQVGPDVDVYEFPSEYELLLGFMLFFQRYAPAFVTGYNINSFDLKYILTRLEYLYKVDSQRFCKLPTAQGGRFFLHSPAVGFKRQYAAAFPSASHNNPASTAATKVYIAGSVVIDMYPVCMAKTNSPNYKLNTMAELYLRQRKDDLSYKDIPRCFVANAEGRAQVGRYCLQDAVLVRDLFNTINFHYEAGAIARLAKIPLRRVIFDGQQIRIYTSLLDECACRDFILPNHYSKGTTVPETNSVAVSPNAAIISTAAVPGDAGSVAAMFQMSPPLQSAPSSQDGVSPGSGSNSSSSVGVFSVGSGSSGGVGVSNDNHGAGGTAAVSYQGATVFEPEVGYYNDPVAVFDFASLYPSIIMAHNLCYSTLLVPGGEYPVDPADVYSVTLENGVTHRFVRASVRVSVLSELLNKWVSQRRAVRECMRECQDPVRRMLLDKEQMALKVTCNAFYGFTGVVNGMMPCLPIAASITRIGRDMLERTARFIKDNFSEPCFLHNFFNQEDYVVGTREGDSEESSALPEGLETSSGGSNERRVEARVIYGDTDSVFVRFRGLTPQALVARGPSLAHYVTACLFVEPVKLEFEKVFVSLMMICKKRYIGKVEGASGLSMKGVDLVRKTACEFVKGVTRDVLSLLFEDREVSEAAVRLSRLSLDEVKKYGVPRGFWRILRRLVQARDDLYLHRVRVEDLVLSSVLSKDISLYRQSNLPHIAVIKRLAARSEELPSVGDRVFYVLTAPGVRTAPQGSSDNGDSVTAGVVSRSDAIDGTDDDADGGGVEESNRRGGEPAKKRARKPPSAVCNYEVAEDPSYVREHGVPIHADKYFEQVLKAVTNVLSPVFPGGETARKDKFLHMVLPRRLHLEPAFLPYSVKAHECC
Method: UL54/UL102 interaction assays. ELISA assays, similar to those described for HSV-1 POL/UL8 (see Example 1 above) were established with purified HCMV UL54 and UL102 proteins. […] The wells were again extensively washed and bound antibody was detected with 50 μl/well of HRP-conjugated protein A (Sigma) diluted 1:500 in PBS containing 2% FCS. After further washes, chromogenic substrate ABTS was added.
Inhibition of the UL54/UL102 interaction by UL102 peptides. […] To do this, the peptides listed in Table 4 were tested for their ability to block the interaction of HCMV UL102 with HCMV UL54. […] The amount of UL54 bound was determined after 1 h by measuring the absorbance at 405 nm as described. The absorbance in the absence of any peptide, 1.061±0.033, was determined from six wells. The background absorbance in the absence of any UL54, 0.240±0.025, was also determined from six wells and was subtracted from all values. […] The concentration of each peptide required to reduce UL54-binding by 50% (the IC50 value) was determined and is listed in Table 4.

POL/UL8 interaction [1] = biological target: T2, POL/UL8 interaction (Human herpesvirus 1, UniProt P04293); experiment: biochemical; assay type: binding, HSV-1; settings: for Inhibition of the POL/UL8 interaction (in words): FIG. 6
T2 construct: made in house; host or cells: Spodoptera frugiperda (Sf) cells infected with recombinant baculoviruses AcUL30 and AcUL8
T2 sequence (P04293 whole entry): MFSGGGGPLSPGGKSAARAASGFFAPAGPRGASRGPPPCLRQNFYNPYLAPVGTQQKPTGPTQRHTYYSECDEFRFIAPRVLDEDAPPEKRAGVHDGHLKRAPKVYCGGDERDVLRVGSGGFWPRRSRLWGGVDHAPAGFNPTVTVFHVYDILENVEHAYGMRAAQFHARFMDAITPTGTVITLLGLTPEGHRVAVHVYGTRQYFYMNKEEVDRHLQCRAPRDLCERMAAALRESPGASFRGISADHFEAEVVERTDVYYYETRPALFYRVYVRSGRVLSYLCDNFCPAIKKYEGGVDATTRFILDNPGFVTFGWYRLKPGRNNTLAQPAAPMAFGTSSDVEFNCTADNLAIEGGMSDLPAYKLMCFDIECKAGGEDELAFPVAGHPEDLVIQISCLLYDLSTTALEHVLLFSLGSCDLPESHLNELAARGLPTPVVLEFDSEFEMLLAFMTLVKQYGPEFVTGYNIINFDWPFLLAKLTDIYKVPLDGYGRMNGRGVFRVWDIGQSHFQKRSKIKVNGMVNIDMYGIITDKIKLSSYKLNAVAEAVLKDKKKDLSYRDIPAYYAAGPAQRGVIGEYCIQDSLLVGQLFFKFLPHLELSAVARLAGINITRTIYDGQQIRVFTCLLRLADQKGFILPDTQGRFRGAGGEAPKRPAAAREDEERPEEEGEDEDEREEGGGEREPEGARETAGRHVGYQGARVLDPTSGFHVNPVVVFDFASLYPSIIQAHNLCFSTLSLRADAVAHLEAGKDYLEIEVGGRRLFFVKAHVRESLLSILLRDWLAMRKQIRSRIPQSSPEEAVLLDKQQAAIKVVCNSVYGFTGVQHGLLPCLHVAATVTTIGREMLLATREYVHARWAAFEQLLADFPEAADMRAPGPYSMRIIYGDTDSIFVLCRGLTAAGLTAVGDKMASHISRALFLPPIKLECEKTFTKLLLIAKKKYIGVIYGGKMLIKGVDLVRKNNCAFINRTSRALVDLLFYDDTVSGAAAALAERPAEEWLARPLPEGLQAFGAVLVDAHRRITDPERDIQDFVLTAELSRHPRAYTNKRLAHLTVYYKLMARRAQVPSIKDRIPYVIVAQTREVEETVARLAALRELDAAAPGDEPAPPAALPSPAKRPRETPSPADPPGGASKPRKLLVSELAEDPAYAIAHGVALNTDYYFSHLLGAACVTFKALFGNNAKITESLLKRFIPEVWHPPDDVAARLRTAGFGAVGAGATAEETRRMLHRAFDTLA
Description: POL/UL8 interaction assays. ELISA assays, similar to that described for POL/UL42 (Marsden et al., 1994) were established with purified POL and UL8 proteins. POL was extracted from Sf cells infected with recombinant baculovirus AcUL30 and purified as described by Gottlieb et al. (1990) with minor modifications (Marsden et al., 1994). UL8 protein was extracted from Sf cells infected with recombinant baculovirus AcUL8 and purified as described by Parry et al., (1993) but substituting phenyl-Sepharose by hydroxylapatite chromatography (Dodson and Lehman, 1991). Both proteins were diluted in PBS to the required concentrations. For the first assay, microtiter wells were coated overnight with 0.02 μg of purified POL and blocked with 100 μl of 2% BSA in PBS for 1 h at 37° C. After blocking, the plates were washed extensively with PBS containing 0.3% Tween 20 and blotted dry. Then 50 μl of purified UL8, at the concentrations indicated in the text, were added to each well and incubated for 1 h at 37° C. […] The wells were again extensively washed and bound MAb was detected with 50 μl/well of HRP-conjugated goat anti-mouse IgG (Sigma) diluted 1:500 in PBS containing 2% FCS and chromogenic substrate ABTS. For the second assay, POL and UL8 proteins were added in the reverse order. Microtitre wells were coated overnight with 0.02 to 0.04 μg of purified UL8 protein and bound POL was detected with a POL-specific MAB 13185 (Marsden et al., 1996) diluted 1:100. Other aspects of the two assays were identical. MAbs, diluted in PBS plus 2% fetal calf serum, and peptides, diluted in 100 mM Tris-HCl (pH 8.0) plus 0.1% Tween 20, were added to the interaction assay as described in the text.
Inhibition of the POL/UL8 interaction by UL8 peptides. […] Peptides were dissolved in 100 mM Tris-HCl (pH 8.0) plus 0.1% Tween 20 at different concentrations and incubated with POL for 15 min to allow the peptides to bind to POL. The mixtures were then added to microtiter wells coated with UL8 and the amount of POL bound was determined after 1 h. […] The concentration of each peptide required to reduce POL binding by 50% (the IC50 value) was determined in at least 3, and on average 5, independent experiments.
The jumbled peptide, 7J, was made by linking residues from alternately the N- and C-termini of peptide 7. Thus, if the order of the 20 residues in peptide 7 is represented as 1, 2, 3, . . . 18, 19, 20, that in 7J was 1, 20, 2, 19, . . . […].
We next investigated whether the preincubation step was necessary.

[2] = Solubility of peptides in assay buffer; assay type: physicochemical; settings: 100 mM Tris-HCl (pH 8.0) plus 0.1% Tween 20
POL/UL8 interaction [3] = biological target: T2, POL/UL8 interaction; experiment: biochemical; assay type: binding, HSV-1; settings: IC50 value for inhibition of the POL/UL8 interaction, FIG. 8; no pre-incubation, peptide added a few seconds after POL
[4] = IC50 value for inhibition of the POL/UL8 interaction, experiment shown in FIG. 7, 15 min pre-incubation with POL

Q: Which IC50 (UL54/UL102 interaction) does the source give for CC[C@H](C)[C@H](NC(=O)[C@@H]1CCCN1C(=O)[C@H](CCC(=O)O)NC(=O)[C@H](CCCCN)NC(=O)[C@H](CCC(=O)O)NC(=O)[C@H](CC(C)C)NC(=O)[C@H](CCC(N)=O)NC(=O)[C@H](Cc1ccc(O)cc1)NC(=O)[C@H](Cc1c[nH]c2ccccc12)NC(=O)[C@H](CC(C)C)NC(=O)[C@H](CCCCN)NC(=O)[C@@H](N)C(C)C)C(=O)N[C@H](C(=O)NCC(=O)N[C@@H](C)C(=O)O)C(C)C [Peptide RT85, reference compound] here?
A: > 200 µM

Q: What about the IC50 (POL/UL8 interaction [1]) of the same compound?
A: > 250 µM

Q: Which IC50 (POL/UL8 interaction [1]) does the source give for EILREIELVFTGVLA [Peptide 8] here?
A: > 250 µM

Q: For IELVFTGVLAGVWGEGGKFV [Peptide 7], which “Solubility (in words)” value [2] is on record?
A: limited solubility

Q: What about the IC50 (POL/UL8 interaction [3]) of the same compound?
A: ~1 µM

Q: And the IC50 (POL/UL8 interaction [1])?
A: 2.3 ± 2.2 µM

Q: And the “Inhibition of the POL/UL8 interaction (in words)” value (POL/UL8 interaction [1])?
A: markedly inhibitory

Q: What about the IC50 (POL/UL8 interaction [1]; IC50 value for inhibition of the POL/UL8 interaction, FIG. 8, peptide pre-incubated with POL for 15 min) of the same compound?
A: ~1 µM

Q: And the IC50 (POL/UL8 interaction [1]; [4])?
A: ~1 µM

Q: With “IVEFLKVGFGTEGGVWLVAG [Peptide 7J, reference compound]” as the compound, how does the IC50 (POL/UL8 interaction [1]) read?
A: > 20 µM

Q: And the IC50 (POL/UL8 interaction [1]; [4])?
A: > 20 µM

Q: Which IC50 (POL/UL8 interaction [1]) does the source give for TGVLAGVWGEGGKFV [Peptide 6] here?
A: > 250 µM

Q: Which IC50 (POL/UL8 interaction [1]) does the source give for TGVLAGVWGEGGKFVYPFDDKMSFLFA [Peptide 4] here?
A: > 250 µM

Q: For “VFTGVLAGVWGEGGKFVYPFDDKMSFLFA [Peptide 5]”, which “Solubility (in words)” value [2] is on record?
A: limited solubility

Q: And the IC50 (POL/UL8 interaction [1])?
A: 66 ± 22 µM

Q: What about the “Inhibition of the POL/UL8 interaction (in words)” value (POL/UL8 interaction [1]) of the same compound?
A: markedly inhibitory

Q: For VLAGVWGEGGKFVYPFDDKMSFLFA [Peptide 3], which IC50 (POL/UL8 interaction [1]) is on record?
A: > 250 µM
